For one experiment, the target named is T1, VDR (GAL4-DBD/VDR-LBD fusion protein in HEK293T cells) (Homo sapiens, UniProt P11473).
T1 construct: the targeting construct (GAL4-DBD/VDR-LBD) fusion protein engineered in a HEK293T cell line containing 7XUAS-bla; host or cells: GeneBLAzer VDR-UAS-bla HEK 293T cells
T1 sequence (P11473 127-423 limits assumed): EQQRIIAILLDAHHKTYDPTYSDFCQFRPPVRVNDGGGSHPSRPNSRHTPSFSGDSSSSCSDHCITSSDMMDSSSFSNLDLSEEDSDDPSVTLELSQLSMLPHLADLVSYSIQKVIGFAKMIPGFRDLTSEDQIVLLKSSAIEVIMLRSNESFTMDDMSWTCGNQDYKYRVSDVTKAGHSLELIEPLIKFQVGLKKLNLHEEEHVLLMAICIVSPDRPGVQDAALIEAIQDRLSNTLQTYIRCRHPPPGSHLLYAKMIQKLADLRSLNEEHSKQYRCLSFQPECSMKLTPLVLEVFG
In words: GeneBLAzer cell-based VDR assay (VDR-UAS-bla HEK 293T, beta-lactamase reporter). As to conditions: agonist or antagonist at VDR; compounds of formula (I) tested as mixture of diastereomers. The text has this: High throughput assay validation of the top ranked unique molecules from each of three PDB conformations on the basis of docking score (glide score+ionization state penalty). From this priority list 200 of the best ranked molecules, following ADMET evaluation, were purchased and subjected to binding assays. The compounds of formula (I) were obtained and tested as a mixture of diastereomers.
To determine which compounds identified by virtual screens are actually capable of regulating the transcriptional profile of VDR, we performed GeneBLAzer® Cell-Based VDR Assay (kit was bought from Invitrogen and assay performed as per instructions). Upon binding of a VDR agonist to the targeting construct (GAL4-DBD/VDR-LBD) fusion protein engineered in a HEK293T cell line containing 7XUAS-bla, a transcriptional cascade is initiated that produces β-lactamase (BLA). In the presence of the BLA LiveBLAzer™ substrate, cells expressing BLA will fluoresce blue (460 nm), while those not expressing BLA will fluoresce green (530 nm); higher […] ratio indicating the activation of VDR, whereas in presence of calcitriol (potent agonist) diminishing of this ratio indicates an antagonist behavior of the ligand. The agonist and antagonist abilities of CADD-selected compounds were determined in six-point concentration profile and compared with vehicle.
GeneBLAzer® VDR-UAS-bla HEK 293T cells were purchased from Invitrogen (Cat# K1700). The cells were cultured in growth medium in a humidified (37° C./5% CO2) incubator following the manufacture's instruction. Test compounds (ChemBridge, San Diego, Calif.) and Calcitriol (1α,25-Dihydroxyvitamin D3, Sigma) were dissolved in 100% DMSO(Sigma) at 1000-fold stock concentration and stored at −20° C., which were diluted in assay medium immediately prior to use. LiverBLAzer-FRET B/G loading kit was purchased from Invitrogen.
The GeneBLAzer® VDR-UAS-bla HEK 293T cell-based assay was used to screen 200 compounds for activity at the vitamin D receptor. The assay was run in triplicate following the manufacture's instruction. Briefly, 2×10^4 cells in 32 μl assay medium were added to each well of a 384-well black-wall assay plate (Corning Incorporated, Cat#3712). To each well was added 8 al of compound solution diluted in assay medium, the cells were incubated in a humidified (37° C./5% CO2) incubator for 5 hours. The cell-free wells (containing 32 μl assay medium only) and unstimulated cell wells were treated in parallel with the same concentration of DMSO in assay medium, which were used as background controls and blank controls, respectively. Calcitriol was used as a positive control. To each well was added 8 μl of LiverBLAzer-FRET B/G substrate mixture. The plate was covered with plate sealer and incubated at room temperature for 2 hours in the dark. Fluorescence emission was measured on SpectraMax plate reader at 460 nm and 530 nm with excitation set to 409 nm. After subtraction of background, the average value at 460 nm was divided by the average value at 530 nm to obtain the 460/530 ratio.
Turning to `CCSCCOC(=O)C1=C(C)NC2=C(C(=O)CC(c3ccc(OC)cc3)C2)C1c1ccccc1OC` (stereo not shown) [Compound 17], the Activity entry was “Agonist”.

With `CCSCCOC(=O)C1=C(C)NC2=C(C(=O)CC(c3ccc(Cl)cc3)C2)C1c1ccccc1F` (stereo not shown) [Compound 11], the Activity entry is on record as “Agonist”. For `CCSCCOC(=O)C1=C(C)NC2=C(C(=O)CC(c3ccc(OC)cc3)C2)C1c1ccccc1F` (stereo not shown) [Compound 13], the Activity entry is reported as “Agonist”.

On to `CCOC(=O)C1=C(C)NC2=C(C(=O)CC(c3ccc(OC)cc3)C2)C1c1cccc(O)c1` (stereo not shown) [Compound 4], for which the Activity result is given as “Antagonist”. Still for that read-out and setting: then `CCOC(=O)C1=C(C)NC2=C(C(=O)CC(c3ccc(OC)cc3)C2)C1c1ccc(O)cc1` (stereo not shown) [Compound 9], with “Antagonist”; and `Cc1cccc(OCC(=O)Nc2ccc(S(=O)(=O)Nc3c(C)cc(C)cc3C)cc2)c1` [Compound 20], with “Agonist”; and `COCCOC(=O)C1=C(C)NC2=C(C(=O)CC(c3ccc(Cl)cc3)C2)C1c1ccc(Br)cc1` (stereo not shown) [Compound 8], with “Agonist”. For the compound `CCOC(=O)C1=C(C)NC2=C(C(=O)CC(c3ccc(Cl)cc3)C2)C1c1ccc(F)cc1` (stereo not shown) [Compound 2], the Activity result is on record as “Agonist”. Same read-out and setting: then `CCSCCOC(=O)C1=C(C)NC2=C(C(=O)CC(c3ccccc3OC)C2)C1c1ccccc1F` (stereo not shown) [Compound 6], with “Agonist”. On the same count and under the same terms, the result for `Cc1ccc(OCC(=O)Nc2ccc(S(=O)(=O)Nc3c(C)cc(C)cc3C)cc2)cc1` [Compound 18] reads “Agonist”; that for `CCSCCOC(=O)C1=C(C)NC2=C(C(=O)CC(c3ccc(Cl)cc3)C2)C1c1ccccc1OC` (stereo not shown) [Compound 15], “Agonist”; that for `CCc1ccc(C2C(C(=O)OCCOc3ccccc3)=C(C)NC3=C2C(=O)CC(c2ccc(OC)cc2)C3)cc1` (stereo not shown) [Compound 5], “Agonist”. The same measure, in the same setting: the result for `Cc1cc(C)c(NS(=O)(=O)c2ccc(NC(=O)COc3ccc(Cl)cc3)cc2)c(C)c1` [Compound 19] reads “Agonist”; that for `CCc1ccc(OCC(=O)Nc2ccc(S(=O)(=O)Nc3cc(C)cc(C)c3)cc2)cc1` [Compound 21], “Antagonist”; that for `COCCOC(=O)C1=C(C)NC2=C(C(=O)CC(c3ccc(Cl)cc3)C2)C1c1ccc(C)cc1` (stereo not shown) [Compound 14], “Agonist”.

On to `CCSCCOC(=O)C1=C(C)NC2=C(C(=O)CC(c3ccccc3)C2)C1c1ccccc1` (stereo not shown) [Compound 1], for which the Activity result is on record as “Agonist”. As for `COc1ccc(C2C(C(=O)OCCOc3ccccc3)=C(C)NC3=C2C(=O)CC(c2ccccc2)C3)cc1O` (stereo not shown) [Compound 3], the Activity entry is listed as “Agonist”. With `CCOc1cc(C2C(C(=O)OCCSCC)=C(C)NC3=C2C(=O)CC(c2ccc(OC)cc2)C3)ccc1O` (stereo not shown) [Compound 7], the Activity result is reported as “Agonist”. On the same count and under the same terms, the result for `Cc1cc(C)c(NS(=O)(=O)c2ccc(NC(=O)COc3ccc(Cl)cc3Cl)cc2)c(C)c1` [Compound 22] reads “Antagonist”; that for `COc1ccc(C2CC(=O)C3=C(C2)NC(C)=C(C(=O)OCCOc2ccccc2)C3c2ccccc2)cc1` (stereo not shown) [Compound 12], “Agonist”; that for `COc1ccc(NS(=O)(=O)c2ccc(NC(=O)COc3ccccc3C)cc2)cc1` [Compound 24], “Antagonist”. Still for that read-out and setting: then `Cc1cccc(OCC(=O)Nc2ccc(S(=O)(=O)Nc3ccc(C)cc3C)cc2)c1` [Compound 23], with “Antagonist”; and `CCOCCOC(=O)C1=C(C)NC2=C(C(=O)CC(c3ccc(Cl)cc3)C2)C1c1ccc(F)cc1` (stereo not shown) [Compound 16], with “Agonist”.

The same experiment, now with this note: high throughput screen of vitamin D receptor activity.
As to `Cc1ccc(OCC(=O)Nc2ccc(S(=O)(=O)Nc3c(C)cc(C)cc3C)cc2)cc1` [Compound 18], the “VDR agonistic activity (degree, in words)” value is “modest agonist activity”. Same read-out and setting: then `CCSCCOC(=O)C1=C(C)NC2=C(C(=O)CC(c3ccccc3)C2)C1c1ccccc1` (stereo not shown) [Compound 1], with “highest degree of agonistic activity”.

The values above are taken from patent US9499488B2, “Vitamin D receptor agonists and uses thereof” (Beth Israel Deaconess Medical Center, Inc., priority 2011, dated 2016).
